Assay results: the supplement of paper PMC10307832

What was measured:
Test in all cases: relative viability (nuclei count vs DMSO), 5 days (fraction); higher = more cells survive
NPK76-II-72-1 + Olaparib = compound: CC1CC(=O)N(C2=CN=C(N=C2N1C3CCCC3)NC4=C(C=C(C=C4)C(=O)NC5CCN(CC5)C)OC)C [NPK76-II-72-1] + O=C(c1cc(Cc2n[nH]c(=O)c3ccccc23)ccc1F)N1CCN(C(=O)C2CC2)CC1 [Olaparib] (partner 8 µM)
How it was run: (§1)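 Relative viability was taken as the ratio of nuclei in treated wells to nuclei in vehicle wells. Lung cancer cell lines in 1536-well plates received compounds by pin tool one day after seeding, either one drug alone or a fixed anchor-drug dose plus five library-drug doses (not always all listed) in √10 steps. Nuclei were counted on 4× images after 5 days of treatment, and values are medians of duplicate plates.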

BI-2536 + Luminespib = compound: CC[C@@H]1C(=O)N(C)c2cnc(Nc3ccc(C(=O)NC4CCN(C)CC4)cc3OC)nc2N1C1CCCC1 [BI-2536] + CCNC(=O)c1noc(-c2cc(C(C)C)c(O)cc2O)c1-c1ccc(CN2CCOCC2)cc1 [Luminespib] (partner 0.01 µM)
How it was run: as §1

NPK76-II-72-1 + OSI-027 = compound: CC1CC(=O)N(C2=CN=C(N=C2N1C3CCCC3)NC4=C(C=C(C=C4)C(=O)NC5CCN(CC5)C)OC)C [NPK76-II-72-1] + COc1cccc2cc(-c3nc([C@H]4CC[C@H](C(=O)O)CC4)n4ncnc(N)c34)[nH]c12 [OSI-027] (partner 0.5 µM)
How it was run: as §1

[1] = compound: CC1CC(=O)N(C2=CN=C(N=C2N1C3CCCC3)NC4=C(C=C(C=C4)C(=O)NC5CCN(CC5)C)OC)C [NPK76-II-72-1] + N=C(N)NC(=N)NCCc1ccccc1 [Phenformin] (partner 250 µM)
How it was run: as §1

Cell Line: UMC-11
- relative viability (NPK76-II-72-1 + Olaparib; first compound 0.01 µM): 0.381
- relative viability (NPK76-II-72-1 + Olaparib; first compound 0.03162 µM): 0.339
- relative viability (NPK76-II-72-1 + Olaparib; first compound 0.1 µM): 0.386
- relative viability (NPK76-II-72-1 + Olaparib; first compound 0.3162 µM): 0.358
- relative viability (NPK76-II-72-1 + Olaparib; first compound 1 µM): 0.403
- relative viability (BI-2536 + Luminespib; first compound 0.01 µM): 0.925
- relative viability (BI-2536 + Luminespib; first compound 0.03162 µM): 0.725
- relative viability (BI-2536 + Luminespib; first compound 0.1 µM): 0.232
- relative viability (BI-2536 + Luminespib; first compound 0.3162 µM): 0.188
- relative viability (BI-2536 + Luminespib; first compound 1 µM): 0.168
- relative viability (NPK76-II-72-1 + OSI-027; first compound 0.01 µM): 0.435
- relative viability (NPK76-II-72-1 + OSI-027; first compound 0.03162 µM): 0.424
- relative viability (NPK76-II-72-1 + OSI-027; first compound 0.1 µM): 0.521
- relative viability (NPK76-II-72-1 + OSI-027; first compound 1 µM): 0.47
- relative viability ([1]; first compound 0.01 µM): 0.318
- relative viability ([1]; first compound 0.03162 µM): 0.32
- relative viability ([1]; first compound 0.1 µM): 0.346
- relative viability ([1]; first compound 1 µM): 0.344
